Results from US20240350467A1, “[6R]-MTHF IN B6 ENHANCED 5-FU BASED CHEMOTHERAPY OF PANCREATIC CANCER” (Isofol Medical AB, priority 2023, published 2024).
Read-outs that look alike come from different tables or passages of the source. Values belong to the compound of their own block, whether it stands above or below them.

Experiments:
[1] = [6R]-MTHF levels after arfolitixorin versus comparable leucovorin treatment; assay type: in vivo
From the text: Leucovorin and l-leucovorin, both currently approved for treatment of gastrointestinal and other cancers, need to be metabolically activated to [6R]-MTHF to potentiate the effect of 5-FU. This dependency on cellular activation provides a hurdle for reaching sufficient levels of the active [6R]-MTHF. […] Secondly, the enzymatic activation is genetically regulated^16,18, and is therefore associated with variability between individuals and conditions. Arfolitoxirin is believed to be efficacious in a larger proportion of patients with less inter- and intra-individual variability. These differences may potentially turn out to be of significant importance for increased clinical efficacy in 5-FU based cancer treatment.

[2] = Stability of [6R]-5,10-MTHF forms; assay type: physicochemical
From the text: Arfolitixorin (former Modufolin®) is a folate-based biomodulator developed by applicant to improve the outcome of a range of antimetabolite treatments used within oncology. One of the therapeutic areas of specific interest included in the development program of arfolitixorin is as biomodulator of 5-fluorouracil (5-FU) activity in standard treatment regime for advanced, metastatic CRC, such as Stage IV. A stable lyophilizate formulation of the naturally occurring diastereoisomeric folate [6R]-5,10-MTHF has successfully been made from the drug substance arfolitixorin hemisulfate. […] As mentioned in the background section of the present application, [6R]-5,10-methylenetetrahydrofolate, abbreviated herein as [6R]-5,10-MTHF, needs to be metabolically formed when using the widely used folate-based drugs leucovorin and levoleucovorin.

[3] = cited from earlier work
[4] = cited from earlier work; remark: listed apart in the source
[5] = in vivo; cited from earlier work
[6] = test system: metastatic pancreatic cancer; details: PRODIGE 4, 342 patients enrolled; cited from earlier work
[7] = test system: metastatic pancreatic cancer; details: MPACT study; cited from earlier work
[8] = test system: metastatic pancreatic cancer; details: standard first-line treatment until 2011; cited from earlier work
[9] = in vitro; cited from earlier work

[6R]-MTHF levels relative to comparable treatment with leucovorin [1]: 3-4 times
stability [2]: very unstable
Compound: Nc1nc2c(c(=O)[nH]1)N1CN(c3ccc(C(=O)N[C@@H](CCC(=O)O)C(=O)O)cc3)C[C@H]1CN2 [Arfolitixorin, [6R]-5,10-methylenetetrahydrofolate]

Compound: Cc1ncc(CO)c(CO)c1O.Cl [Pyridoxine hydrochloride]
solubility in water [3]: One gram dissolves in 5 mL of water
stability in air ([4]; air): stable in air
stability to sunlight ([4]; sunlight): slowly affected by sunlight

stability [2]: unexpectedly stable salt
Compound: Nc1nc2c(c(=O)[nH]1)N1CN(c3ccc(C(=O)N[C@@H](CCC(=O)O)C(=O)O)cc3)C[C@H]1CN2.Nc1nc2c(c(=O)[nH]1)N1CN(c3ccc(C(=O)N[C@@H](CCC(=O)O)C(=O)O)cc3)C[C@H]1CN2.O=S(=O)(O)O [arfolitixorin hemisulfate]

Compound: Nc1nc2c(c(=O)[nH]1)N(C=O)[C@H](CNc1ccc(C(=O)N[C@@H](CCC(=O)O)C(=O)O)cc1)CN2 [d-LV]
excretion by the kidneys [5]: slowly excreted

Compound: Nc1ccn([C@@H]2O[C@H](CO)[C@@H](O)C2(F)F)c(=O)n1 [gemcitabine]
median overall survival (mOS) [6]: 6.8 months
objective response rate (ORR) [6]: 9.4%
ORR [7]: 7%
mOS [7]: 6.7 months
median overall survival (mOS) [8]: about 6 months

Compound: Nc1nc(=O)c2c([nH]1)NC[C@H](CNc1ccc(C(=O)N[C@@H](CCC(=O)O)C(=O)O)cc1)N2C=O [l-LV, [6S]-5-formyl-THF]
conversion to methyl-tetrahydrofolate form [9]: rapidly converted

Compound: FOLFIRINOX
median overall survival (mOS) [6]: 11.1 months
objective response rate (ORR) [6]: 31.6%
